Laboratory results published in patent publication US11667652B2, “MCL1 inhibitors” (Gilead Sciences, Inc., priority 2019, dated 2023).
pEC50, pIC50: −log10 of the molar value. Read-outs that look alike come from different tables or passages of the source.

Tests used:
[1] = test system: SKBR3 cells; assay: SKBR3 Cell Viability Assay; format: cell-based; settings: CellTiter Glo, read-out: MCL1 CV SKBR3 EC50
Summary of the method: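 SKBR3 cells (6,000/well, McCoy's 5A + 10% FBS) were added onto pre-spotted serial compound dilutions and incubated 72 h at 37° C, 5% CO2. Viability was read by CellTiter-Glo luminescence, with % inhibition normalised to DMSO (negative) and 10 μM puromycin (positive).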

[2] = biological target: MCL1/Bim (Homo sapiens (Human), UniProt Q07820); assay: MCL1/Bim Binding AlphaLISA Assay; settings: recombinant human 6xHis-MCL1 (171-327), biotinylated Bim peptide (51-76)
Summary of the method: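 AlphaLISA with 0.0625 nM human 6×His-MCL1 (171-327) and 0.0625 nM biotinylated Bim (51-76) peptide in 20 mM Hepes pH 7.5, 150 mM NaCl, 0.002% Brij 35, 1 mM DTT, 0.01% BSA. Compound preincubated with MCL1 1 h, Bim added 2 h, then acceptor and donor beads 1 h each; % inhibition versus DMSO and no-protein/peptide controls.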

[3] = Homo sapiens, SK-BR-3, 72 hours

Sequence of MCL1/Bim (Q07820 171-327): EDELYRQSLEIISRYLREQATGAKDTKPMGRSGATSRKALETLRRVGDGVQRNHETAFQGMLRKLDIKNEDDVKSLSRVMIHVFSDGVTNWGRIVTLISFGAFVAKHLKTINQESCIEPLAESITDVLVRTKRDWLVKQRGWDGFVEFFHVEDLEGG

pEC50 ([1]; 72 hours) | pIC50 [2] | pEC50 [1, 3] | Structure (SMILES)
6.05 | 9.17 |  | C=CC[C@@H]1C[C@@H]2C[C@H](OC)[C@@H]3CC[C@H]3CN3C[C@@]4(CCCc5cc(Cl)ccc54)CCc4ccc(cc43)C(=O)N=[S@](=O)(NC(=O)c3cn(C)nc3OC)C[C@@H](C)[C@H]2O1 [Example 141]
 | 10.40 | 7.76 | CO[C@H]1/C=C/C[C@H](C)C[S@@](=O)(NC(=O)c2cnn(C)c2)=NC(=O)c2ccc3c(n2)N(C[C@@H]2CC[C@H]21)C[C@@]1(CCCc2cc(Cl)ccc21)CO3 [Example 185]
7.00 | 10.16 |  | COc1nn(C)cc1C(=O)N[S@@]1(=O)=NC(=O)c2ccc3c(c2)N(C[C@@H]2CC[C@H]2[C@@H](OC)[C@H]2CN(C)[C@H]4CO[C@H](C(C)C1)[C@@H]24)C[C@@]1(CCCc2cc(Cl)ccc21)CO3 (stereo partly drawn) [Example 134]
 | 9.98 | 7.06 | CCn1cc(C(=O)N[S@@]2(=O)=NC(=O)c3ccc4c(c3)N(C[C@@H]3CC[C@H]3[C@@H](OC)/C=C/C[C@H](C)C2)C[C@]2(CO4)C[C@@H]3C[C@@H]3c3cc(Cl)ccc32)cn1 [Example 164]
 | 10.57 | 7.29 | COc1nn(C)cc1C(=O)N[S@@]1(=O)=NC(=O)c2ccc3c(c2)N(C[C@@H]2CC[C@H]2[C@H]2O[C@H](CCN(C)C)C[C@@H]2CC[C@H](C)C1)C[C@@]1(CCCc2cc(Cl)ccc21)CO3 [Example 152]
 | 10.40 | 7.09 | COc1nn(C)cc1C(=O)N[S@@]1(=O)=NC(=O)c2ccc3c(n2)N(C[C@@H]2CC[C@H]2[C@@H](OC)/C=C/[C@H](O)[C@H](C)C1)C[C@@]1(CCCc2cc(Cl)ccc21)CO3 (mixture of isomers) [Example 196]
 | 9.64 | 6.85 | CO[C@H]1/C=C/C[C@H](C)[C@@H](C)[S@@](=O)(NC(=O)c2cc3n(c2)CCOC3)=NC(=O)c2ccc3c(n2)N(C[C@@H]2CC[C@H]21)C[C@]1(CO3)C[C@@H]2C[C@@H]2c2cc(Cl)ccc21 [Example 206]
 | 9.63 | 7.03 | CO[C@H]1/C=C/C[C@H](C)C[S@@](=O)(NC(=O)c2cc3n(c2)CCOC3)=NC(=O)c2ccc3c(c2)N(C[C@@H]2CC[C@H]21)C[C@]1(CO3)C[C@@H]2C[C@@H]2c2cc(Cl)ccc21 [Example 168]
 | 9.62 | 6.20 | CO[C@H]1/C=C/CCC[S@@](=O)(NC(=O)NC2CC2)=NC(=O)c2ccc3c(c2)N(C[C@@H]2CC[C@H]21)C[C@]1(CO3)C[C@@H]2C[C@@H]2c2cc(Cl)ccc21 [Example 175]
6.00 | 9.72 |  | COc1nn(C)cc1C(=O)N[S@@]1(=O)=NC(=O)c2ccc3c(c2)N(C[C@@H]2CC[C@H]2/C=C/[C@@H]2OCCO[C@@H]2[C@H](C)C1)C[C@@]1(CCCc2cc(Cl)ccc21)CO3 [Example 153]
 | 10.02 | 7.17 | COc1nn(C)cc1C(=O)N[S@@]1(=O)=NC(=O)c2ccc3c(c2)N(C[C@@H]2CC[C@H]2[C@H]2OCC[C@@H]2CC[C@H](C)C1)C[C@@]1(CCCc2cc(Cl)ccc21)CO3 [Example 136]
 | 9.89 | 6.85 | CO[C@H]1/C=C/C[C@H](C)C[S@@](=O)(NC(=O)c2cn(C)c(=O)n2C)=NC(=O)c2ccc3c(c2)N(C[C@@H]2CC[C@H]21)C[C@@]1(CCCc2cc(Cl)ccc21)CO3 [Example 208]
6.43 | 9.41 |  | COc1nn(C)cc1C(=O)N[S@@]1(=O)=NC(=O)c2ccc3c(c2)N(C[C@@H]2CC[C@H]2[C@@H]2/C=C/[C@H](OCCCC(=O)O2)[C@H](C)C1)C[C@@]1(CCCc2cc(Cl)ccc21)CO3 [Example 156]
7.65 | 10.30 |  | COc1nn(C)cc1C(=O)N[S@@]1(=O)=NC(=O)c2ccc3c(n2)N(C[C@@H]2CC[C@H]2[C@@H](OC)/C=C/[C@H](OC)[C@H](C)C1)C[C@@]1(CCCc2cc(Cl)ccc21)CO3 [Example 198]

Continued, compound first:

Structure (SMILES) | pEC50 ([1]; 72 hours) | pIC50 [2] | pEC50 [1, 3]
CC[C@@H]1CC/C=C/[C@H](OC)[C@@H]2CC[C@H]2CN2C[C@@]3(CCCc4cc(Cl)ccc43)COc3ccc(cc32)C(=O)N=S1(=O)NC(=O)COC1CCOCC1 (stereo partly drawn) [Example 40] | 6.49 | 10.00 | 
COc1nn(C)cc1C(=O)N[S@@]1(=O)=NC(=O)c2ccc3c(c2)N(C[C@@H]2CC[C@H]2C(=O)/C=C/C[C@H](C)[C@H]1C)C[C@@]1(CCCc2cc(Cl)ccc21)CO3 [Example 48] | 6.76 | 9.16 | 
COc1nn(C)cc1C(=O)N[S@@]1(=O)=NC(=O)c2ccc3c(c2)N(C[C@@H]2CC[C@H]2[C@@](O)(C#CCN(C)C)/C=C/C[C@H](C)C1)C[C@@]1(CCCc2cc(Cl)ccc21)CO3 [Example 108] | 8.22 | 10.32 | 
COc1nn(C)cc1C(=O)N[S@@]1(=O)=NC(=O)c2ccc3c(c2)N(C[C@@H]2CC[C@H]2[C@@](O)(CCN2CCOCC2)/C=C/C[C@H](C)C1)C[C@@]1(CCCc2cc(Cl)ccc21)CO3 [Example 113] | 7.45 | 9.88 | 
COc1nn(C)cc1C(=O)N[S@@]1(=O)=NC(=O)c2ccc3c(c2)N(C[C@@H]2CC[C@H]2[C@](CN2CCN(C4COC4)CC2)(OC)/C=C/C[C@H](C)C1)C[C@@]1(CCCc2cc(Cl)ccc21)CO3 [Example 115] |  | 10.54 | 7.80
COc1nn(C)cc1C(=O)N[S@@]1(=O)=NC(=O)c2ccc3c(c2)N(C[C@@H]2CC[C@H]2[C@@H](OC)/C=C/[C@H](OC(C)=O)[C@H](C)[C@H]1C)C[C@@]1(CCCc2cc(Cl)ccc21)CO3 [Example 91] | 7.05 | 9.75 | 
C[C@H]1C/C=C/[C@H](O)[C@@H]2CC[C@H]2CN2C[C@@]3(CCCc4cc(Cl)ccc43)COc3ccc(cc32)C(=O)N=[S@](=O)(Nc2nc(Cl)nc3nn(C)cc23)C1 [Example 30] |  | 10.52 | 6.03
C[C@H]1C/C=C/[C@H](O)[C@@H]2CC[C@H]2CN2C[C@@]3(CCCc4cc(Cl)ccc43)COc3ccc(cc32)C(=O)N=[S@](=O)(Nc2nc3nnnn3c3nn(C)cc23)C1 (mixture of isomers) [Example 31] |  | 10.19 | 5.36
COc1nn(C)cc1C(=O)N[S@@]1(=O)=NC(=O)c2ccc3c(c2)N(C[C@@H]2CC[C@H]2[C@@](CN2CC(OC)C2)(OC)/C=C/C[C@H](C)C1)C[C@@]1(CCCc2cc(Cl)ccc21)CO3 [Example 117] |  | 10.17 | 7.62
Cn1nccc1CCC(=O)NS1(=O)=NC(=O)c2ccc3c(c2)N(C[C@@H]2CC[C@H]2[C@@H](OCCN2CCOCC2)/C=C/CCC1)C[C@@]1(CCCc2cc(Cl)ccc21)CO3 (stereo partly drawn) [Example 49] | 6.28 | 9.71 | 
COc1nn(C)cc1C(=O)N[S@@]1(=O)=NC(=O)c2ccc3c(c2)N(C[C@@H]2CC[C@H]2[C@@](O)(CC(=O)N2CCN(C4COC4)CC2)/C=C/C[C@H](C)C1)C[C@@]1(CCCc2cc(Cl)ccc21)CO3 [Example 104] | 7.27 | 10.47 | 
C[C@H]1C/C=C/[C@H](O)[C@@H]2CC[C@H]2CN2C[C@@]3(CCCc4cc(Cl)ccc43)COc3ccc(cc32)C(=O)N=[S@](=O)(Nc2nc(N3CCOCC3)nc3nn(C)cc23)C1 [Example 33] |  | 10.72 | 7.52
COCC(=O)O[C@H]1/C=C/[C@H](OC)[C@@H]2CC[C@H]2CN2C[C@@]3(CCCc4cc(Cl)ccc43)COc3ccc(cc32)C(=O)N=[S@](=O)(NC(=O)c2cn(C)nc2OC)C[C@H]1C [Example 73] |  | 10.33 | 7.86
COc1nn(C)cc1C(=O)N[S@@]1(=O)=NC(=O)c2ccc3c(c2)N(C[C@@H]2CC[C@H]2[C@@H](OCCN2CCN(C4COC4)CC2)/C=C/C[C@H](C)C1)C[C@@]1(CCCc2cc(Cl)ccc21)CO3 [Example 60] |  | 10.15 | 7.72
COc1nn(C)cc1C(=O)N[S@@]1(=O)=NC(=O)c2ccc3c(c2)N(C[C@@H]2CC[C@H]2[C@@H](OC(=O)CCC2CCOCC2)/C=C/C[C@H](C)C1)C[C@@]1(CCCc2cc(Cl)ccc21)CO3 [Example 56] |  | 9.80 | 7.03
CO[C@H]1/C=C/[C@H](O)[C@H](C)C[S@@](=O)(Nc2ncnc3nn(C)cc23)=NC(=O)c2ccc3c(c2)N(C[C@@H]2CC[C@H]21)C[C@@]1(CCCc2cc(Cl)ccc21)CO3 [Example 66] |  | 10.41 | 8.07
COc1nn(C)cc1C(=O)N[S@@]1(=O)=NC(=O)c2ccc3c(c2)N(C[C@@H]2CC[C@H]2[C@@H](OC)/C=C/[C@@](C)(OC)[C@H](C)C1)C[C@@]1(CCCc2cc(Cl)ccc21)CO3 [Example 122] |  | 10.52 | 7.75
COc1nn(C)cc1C(=O)N[S@@]1(=O)=NC(=O)c2ccc3c(c2)N(C[C@@H]2CC[C@H]2[C@@H](O)C#CC[C@H](C)C1)C[C@@]1(CCCc2cc(Cl)ccc21)CO3 [Example 36] | 5.97 | 9.57 | 
COc1nn(C)cc1C(=O)N[S@@]1(=O)=NC(=O)c2ccc3c(c2)N(C[C@@H]2CC[C@H]2[C@@H](OC)C#C[C@H](OC)[C@H](C)C1)C[C@@]1(CCCc2cc(Cl)ccc21)CO3 [Example 72] | 6.53 | 9.51 | 
COc1nn(C)cc1C(=O)N[S@@]1(=O)=NC(=O)c2ccc3c(c2)N(C[C@@H]2CC[C@H]2[C@@H](OCCN2CCC(OC)CC2)/C=C/C[C@H](C)C1)C[C@@]1(CCCc2cc(Cl)ccc21)CO3 [Example 63] |  | 10.47 | 7.60
C=CCO[C@H]1/C=C/C[C@H](C)C[S@@](=O)(NC(=O)c2cn(C)nc2OC)=NC(=O)c2ccc3c(c2)N(C[C@@H]2CC[C@H]21)C[C@@]1(CCCc2cc(Cl)ccc21)CO3 [Example 54] | 6.99 | 10.04 | 
COc1nn(C)cc1C(=O)N[S@@]1(=O)=NC(=O)c2ccc3c(c2)N(C[C@@H]2CC[C@H]2[C@@](O)(CC(=O)N(C)C)/C=C/C[C@H](C)C1)C[C@@]1(CCCc2cc(Cl)ccc21)CO3 [Example 97] | 7.80 | 10.33 | 
